“Also recorded” adds a separate entry of the source.
Key:
[1] = system: interaction of CT45 with heterochromatin-associated PP4; test: ChIP-MS of V5-tagged CT45 ± carboplatin; type: cell-based, human; settings: OVCAR5-V5-CT45 ± carboplatin
Method: For chromatin immunoprecipitation coupled to mass spectrometry (ChIP-MS), freshly harvested cells were crosslinked with 1% formaldehyde for 10 min in PBS. Cells were lysed in IP Buffer (50 mM Tris-HCl (pH 8), 100 mM NaCl, 5 mM EDTA (pH 8), 0.3% SDS, 1.7% Triton-X-100, supplemented with EDTA-free protease inhibitor cocktail (Roche) and phosphatase inhibitor cocktail (Roche)) and chromatin sonicated to an average size of 200-400 bp. 1 mg of total cell lysate was incubated with 3 μg of respective antibody overnight at 4° C. under constant rotation. The next day, 30 μl of protein G-coupled agarose beads (Cell signaling technology) were added and incubated for 3 h at 4° C. under constant rotation. Antibody-bait complexes were then washed three times with low salt wash buffer (50 mM HEPES pH 7.5, 140 mM NaCl, 1% Triton), once with high salt wash buffer (50 mM HEPES pH 7.5, 500 mM NaCl, 1% Triton) and twice with TBS. Elution was carried out by a partial on-bead digest as recently described. Peptides were finally desalted with C18 StageTips prior to MS analysis.

[2] = system: OVCAR5 CT45 expressing cells; test: Proliferation with increasing concentrations of carboplatin; type: cell-based, human; settings: CT45 expressing cells treated with carboplatin
Method: FIG. 8A-B. CT45 sensitizes cancer cells to carboplatin. a, Western blot of CT45 expression in ovarian cancer cell lines transduced with a CT45A5 lentivirus. b, Proliferation of OVCAR5 control (V5) or CT45 expressing cells with increasing concentrations of carboplatin.
FIG. 19A-F. CT45 sensitizes cancer cells to carboplatin. a, MTT of SKOV3ip1 cells with or without 500 nM DAC treated with increasing doses of carboplatin. Cells were pretreated with 500 nM DAC for 72 hr then cultured for 4 days and treated with carboplatin on day 7. The MTT was performed after 72 hr with carboplatin treatment. b, Western blot of CT45 expression in ovarian cancer cell lines transduced with a CT45A5 lentivirus. c, Proliferation of OVCAR5 control (V5) or CT45 expressing cells with increasing concentrations of carboplatin. d, Cell cycle analysis of OVCAR5 control (V5) or CT45 expressing cells stained with propidium iodide. e, Clonogenic survival assay of the ovarian cancer cell line OVKATE stably overexpressing CT45 or control. Dots represent mean values from three independent experiments. Error bars show s.e.m. for each group. f, Interaction proteomics screen in the ovarian cancer cell line COV318 stably over-expressing V5-tagged CT45. Protein enrichment (t-test difference) is calculated over the corresponding control cell line (V5 tag alone) and plotted against the t-test p-value (−log10). […]

[3] = system: chromatin enrichment of KAP-1 or PP4; test: Chromatin fractionation; type: cell-based, human; settings: OVCAR5-V5-CT45 cell line
Method: Chromatin fractionation was performed as described previously. Soluble proteins and proteins bound to open or compacted chromatin were separated by stepwise increasing the salt and nuclease (MNase) treatment. 1E7 cells were washed with PBS and 1 ml low salt buffer (LSB: 10 mM HEPES [pH 7.4], 25 mM KCl, 10 mM NaCl, 1 mM MgCl2, 0.1 mM EDTA). Pelleted cells were then resuspended in six times the packed cell volume (PCV) of LSB supplemented with protease and phosphatase inhibitor cocktail (Roche). After snap freezing in liquid nitrogen, samples were quickly thawed and immediately centrifuged (10 min at 10,000 rpm). The pellet was resuspended in a volume of high-salt buffer (HSB: 50 mM Tris-HCl [pH 8.0], 5% [v/v] glycerol, 1 mM EDTA, 10 mM MgCl2, 400 mM KCl, supplemented with protease and phosphatase inhibitor cocktail), equal to 0.25 V of LSB. After centrifugation at 10,000 rpm (supernatant=nucleoplasmic fraction), the pellet was resuspended in a volume nuclease buffer containing 10 U/ml MNase (NEB) and incubated at 37° C. for 10 min and centrifuged for 5 min at 10,000 rpm (supernatant=chromatin fraction 1). The pellet was then resuspended in the same volume of nuclease buffer containing 100 U/ml MNase and incubated another 45 min at 37° C. before an equal V of solubilization buffer (nuclease buffer+2% [v/v] NP-40, 2% [v/v] Triton X-100, 600 mM NaCl) was added. […]

[4] = system: OVCAR5 stably overexpressing CT45; test: Clonogenic survival assay, OVCAR5; type: cell-based, human; settings: CT45 expressing cells treated with carboplatin
Method: Cells were treated with different carboplatin concentrations for 48 hours and 7-9 days after treatment colonies were counted and plotted as a percent of control on a logarithmic scale.
Cells were treated with different carboplatin concentrations for 48-72 hours. 2000 cells per 6-well were then plated for 7-9 days in drug-free medium. Grown colonies were fixed and stained with 1% formaldehyde, 1% methanol and 0.05% Crystal Violet for 20 min. Colony numbers were then counted with the Colony Area ImageJ plugin and plotted as percent of control on a logarithmic scale.

[5] = system: OVCAR5-V5 (control plasmid) tumors; test: Subcutaneous tumor growth in nude mice, control vector tumors; type: in vivo, athymic nude mice; settings: carboplatin 20 mg/kg tail vein 1 time/week, control cell line
Method: (§1) 5 million OVCAR5-V5 or OVCAR5-V5-CT45 cells suspended in a 1:2 solution of serum-free media to growth-factor reduced matrigel were injected subcutaneously into the right and left flanks respectively, of 8 week old female athymic nude mice. After 5 days, treatment was administered through the tail vein 1 time/week at 20 mg/kg. Sterile water served as the control treatment. Tumor growth was measured every 2-3 days using calipers until the tumor neared 1 cm3 and was measured daily. Once the tumor reached 1 cm3 the mouse was sacrificed. 4 mice were removed from the study early due to ulcerations of the skin. All experiments were approved by the Institutional Animal Care and Use Committee of the University of Chicago.
as §1, with “Five million” for “5 million”, “8 weeks” for “8 week”, “1 cm^3” for “1 cm3”, “skin. […]” for “skin. All experiments were approved by the Institutional Animal Care and Use Committee of the University of Chicago.”

## N.N.O=C([O-])C1(C(=O)[O-])CCC1.[Pt+2] [carboplatin]
[1]
  interaction of CT45 with heterochromatin-associated PP4: not affected
[2]
  proliferation: significantly reduced; also recorded: reduced proliferation
[3]
  chromatin enrichment of KAP-1 or PP4: did not find
[4]
  colony formation: significantly reduced
[5]
  tumor growth: no effect

— US12173042B2, “Methods of treating cancers with CT45 targeted therapies” (The University of Chicago, priority 2016, dated 2024)
